Reference: patent US20230255953A1, “USE OF ROLUPERIDONE IN PREVENTING RELAPSE IN SCHIZOPHRENIA PATIENTS” (Minerva Neurosciences, Inc., priority 2022, published 2023)

System: patients with negative symptoms of schizophrenia
Assay: Study #2 (MIN-101C07): Personal and Social Performance (PSP)
Assay type: in vivo, human
Design: key to PSP total score, LS mean difference vs placebo in change from Baseline / Mean change in PSP Total score from Active Baseline / Change from Baseline LS Mean: PSP Total Score (ITT) / Change from Baseline LS Mean: PSP Total Score (mITT): PSP Total score points (1–100 scale, higher = better functioning)
Conditions: for Change from Baseline LS Mean: PSP Total Score (ITT) / Change from Baseline LS Mean: PSP domain Disturbing and Aggressive Behaviors / Change from Baseline LS Mean: PSP domain Personal and Social Relationships / Change from Baseline LS Mean: PSP domain Self-Care / Change from Baseline LS Mean: PSP domain Socially Useful Activities / Effect Size (Cohen's d) vs Placebo: PSP Total Score (ITT) / Effect Size (Cohen's d) vs Placebo: PSP domain Disturbing and Aggressive Behaviors / Effect Size (Cohen's d) vs Placebo: PSP domain Personal and Social Relationships / Effect Size (Cohen's d) vs Placebo: PSP domain Self-Care / Effect Size (Cohen's d) vs Placebo: PSP domain Socially Useful Activities: ITT; for Mean change in PSP Total score from Active Baseline: Week 52, OL
From the text: The PSP is a validated clinician-rated scale intended to reflect real-life situations that measures personal and social functioning in 4 domains: (a) socially useful activities, (b) personal and social relationships, (c) self-care, and (d) disturbing and aggressive behaviors. The score is based on the assessment of a patient's performance in the 4 domains. The PSP Total score is a single measurement of functioning ranging from 1 to 100, where a higher score represents better functioning. A score of 91 to 100 indicates excellent functioning in all 4 main areas; the patient is held in high consideration for their good qualities, copes adequately with life problems, and is involved in a wide range of interests and activities. A score of 1 to 10 indicates a lack of autonomy in basic functioning with extreme behaviors but without survival risk (score 6 to 10) or with survival risk (score 1 to 5). […] Review of the relevant scientific literature and the analysis of the psychometric properties of the 4 domains that result in the generation of the PSP Total score were supportive of the appropriateness and cross-cultural applicability of the use of the PSP in drug development for the indication of negative symptoms of schizophrenia The PSP was assessed at the timepoints described in Table 6. The changes from Baseline in the PSP Total score and individual domain scores after 12 weeks of treatment were exploratory efficacy endpoints in Study MIN-101C03, and the Total score was the key secondary efficacy endpoint and the PSP domain scores were exploratory endpoints in Study MIN-101C07.
Study #2 (also referred to as “MIN101C07”) was a Phase 3, randomized, DB, placebo-controlled, parallel-group 12-week study to evaluate the efficacy and safety of Roluperidone in patients ≥18 years to ≤55 years with negative symptoms of schizophrenia, followed by a 40-week OL extension. The study consisted of a pretreatment screening period of up to 28 days (including an antipsychotic medication washout period), a 12-week, DB, placebo-controlled period, and a 40-week OL period. Eligible patients (with moderate to severe negative symptoms of schizophrenia and stable positive symptoms but without severe symptoms of suspiciousness, agitation, hostility, uncooperativeness, or poor impulse control) were randomized 1:1:1 to receive Roluperidone 32 mg QD, Roluperidone 64 mg QD (GR01/B formulation, see U.S. Pat. No. 11,464,744), or placebo, orally, for 12 weeks. […] During the 40-week OL treatment extension, patients who were initially randomized to Roluperidone 32 mg or 64 mg continued treatment with the same dose, while patients who were initially randomized to placebo crossed over to Roluperidone 32 mg or 64 mg in a 1:1 ratio.

1H-Isoindol-1-one,2-[ [1-[2-(4-fluorophenyl)-2-oxoethyl]-4-piperidinyl]methyl]-2,3-dihydro-, hydrochloride, hydrate (1:1:2) [Roluperidone]
Effect Size (Cohen's w) vs Placebo: 7-Point improvement in PSP Total Score responders (32 mg QD, Week 12 DB): 0.03 | Effect Size (Cohen's w) vs Placebo: 10-Point improvement in PSP Total Score responders (32 mg QD, Week 12 DB): 0.01 | Number of Patients with 7-Point improvement in PSP Total Score at Week 12 (32 mg QD, Week 12 DB): 37/116 | Number of Patients with 10-Point improvement in PSP Total Score at Week 12 (32 mg QD, Week 12 DB): 26/116 | Patients with 7-Point improvement in PSP Total Score at Week 12 (%) (32 mg QD, Week 12 DB): (32%) | Patients with 10-Point improvement in PSP Total Score at Week 12 (%) (32 mg QD, Week 12 DB): (22%) | Change from Baseline LS Mean: PSP Total Score (ITT) (32 mg QD, Week 12 DB): 4.5 | Change from Baseline LS Mean: PSP domain Disturbing and Aggressive Behaviors (32 mg QD, Week 12 DB): 0.0 | Change from Baseline LS Mean: PSP domain Personal and Social Relationships (32 mg QD, Week 12 DB): −0.4 | Change from Baseline LS Mean: PSP domain Self-Care (32 mg QD, Week 12 DB): −0.4 | Change from Baseline LS Mean: PSP domain Socially Useful Activities (32 mg QD, Week 12 DB): −0.3 | Effect Size (Cohen's d) vs Placebo: PSP Total Score (ITT) (32 mg QD, Week 12 DB): 0.07 | Effect Size (Cohen's d) vs Placebo: PSP domain Disturbing and Aggressive Behaviors (32 mg QD, Week 12 DB): 0.00 | Effect Size (Cohen's d) vs Placebo: PSP domain Personal and Social Relationships (32 mg QD, Week 12 DB): 0.15 | Effect Size (Cohen's d) vs Placebo: PSP domain Self-Care (32 mg QD, Week 12 DB): 0.15 | Effect Size (Cohen's d) vs Placebo: PSP domain Socially Useful Activities (32 mg QD, Week 12 DB): 0.02 | Change from Baseline LS Mean: PSP Total Score (mITT) (32 mg QD, Week 12 DB): 4.4 | Effect Size (Cohen's d) vs Placebo: PSP Total Score (mITT) (32 mg QD, Week 12 DB): 0.07 | Effect Size (Cohen's w) vs Placebo: 7-Point improvement in PSP Total Score responders (64 mg QD, Week 12 DB): 0.13 | Effect Size (Cohen's w) vs Placebo: 10-Point improvement in PSP Total Score responders (64 mg QD, Week 12 DB): 0.10 | Number of Patients with 7-Point improvement in PSP Total Score at Week 12 (64 mg QD, Week 12 DB): 50/122 | Number of Patients with 10-Point improvement in PSP Total Score at Week 12 (64 mg QD, Week 12 DB): 37/122 | Change from Baseline LS Mean: PSP Total Score (ITT) (64 mg QD, Week 12 DB): 6.1 | Change from Baseline LS Mean: PSP domain Disturbing and Aggressive Behaviors (64 mg QD, Week 12 DB): 0.0 | Change from Baseline LS Mean: PSP domain Personal and Social Relationships (64 mg QD, Week 12 DB): −0.3 | Change from Baseline LS Mean: PSP domain Self-Care (64 mg QD, Week 12 DB): −0.3 | Change from Baseline LS Mean: PSP domain Socially Useful Activities (64 mg QD, Week 12 DB): −0.4 | Effect Size (Cohen's d) vs Placebo: PSP Total Score (ITT) (64 mg QD, Week 12 DB): 0.27 | Effect Size (Cohen's d) vs Placebo: PSP domain Disturbing and Aggressive Behaviors (64 mg QD, Week 12 DB): −0.07 | Effect Size (Cohen's d) vs Placebo: PSP domain Personal and Social Relationships (64 mg QD, Week 12 DB): 0.00 | Effect Size (Cohen's d) vs Placebo: PSP domain Self-Care (64 mg QD, Week 12 DB): 0.04 | Effect Size (Cohen's d) vs Placebo: PSP domain Socially Useful Activities (64 mg QD, Week 12 DB): 0.18 | Change from Baseline LS Mean: PSP Total Score (mITT) (64 mg QD, Week 12 DB): 6.2 | Effect Size (Cohen's d) vs Placebo: PSP Total Score (mITT) (64 mg QD, Week 12 DB): 0.29 | PSP total score, LS mean difference vs placebo in change from Baseline (64 mg, Week 12, ITT): 2.2 | PSP Total score, course in OL period (OL period): continued improvement was seen | Mean change in PSP Total score from Active Baseline (placebo to 32 mg group): 11.7 | Mean change in PSP Total score from Active Baseline (placebo to 64 mg group): 11.8
